The source of these data is patent US20240133884A1, “COMPOSITIONS AND METHODS FOR DETECTING TRYPANOSOMA CRUZI INFECTION” (University of Georgia Research Foundation, Inc., priority 2022, published 2024).

By IC50 is commonly meant the concentration needed to halve the response being measured. As a reminder, the IC90 is the concentration needed for an effect of 90%.

Data set [1] relates to CPSF3. Kind of data set: Resistance of CPSF3 overexpression line and CPSF3 mutant (intracellular amastigotes). The class given is cell-based, Trypanosoma cruzi. As to the method:
(§1) The in vitro anti-T. cruzi amastiogote activity assay was performed and optimized based on the protocol described previously (Canavaci, et al., PLoS neglected tropical diseases 4, e740 (2010)). The change in tdTomato fluorescence intensity was determined as a measurement of growth over 72 hours of culture. For assaying drug effects on extracellular amastigotes, trypomastigotes were collected from infected Vero cell cultures and converted in acidic media as previously described (Tomlinson, et al., Parasitology 110 (Pt 5), 547-554 (1995)). Amastigotes (50,000/well) were incubated with 2-fold serial dilutions of compounds for 48 hours. The ATP production was used as an indication of growth in this case, and was measured by ATPlite Luminescence ATP Detection Assay System (PerkinElmer). Both fluorescence and luminescence were read using a BioTek Synergy Hybrid Multi-Mode reader equipped with the software Gene5 v 2.0 (BioTek). The dose-response curve was generated by […] analysis with GraphPad Prism v9.4.0 (GraphPad Software). IC50 was determined as the drug concentration that was required to inhibit 50% of growth compared to that of parasites with no drug exposure. […]

For data set [2], the system named is T. cruzi (Brazil strain). Kind of data set: In vivo killing time assay: mouse footpads, Luciferase-expressing T. cruzi. Details: species or system Trypanosoma cruzi. The following applies: mice, single oral dose 25 mg/kg (FIG. 1C). Here is the method: Cure assays: Male or female C57BL/6 mice were intraperitoneally infected with 10^4 trypomastigotes of the Brazil strain. Mouse infection was confirmed at 25-30 dpi by detection of CD8^+ T cells specific against the T. cruzi TSKb20 peptide in blood (Martin, et al., PLoS pathogens 2, e77 (2006)). Compounds resuspended in 1% carboxymethyl cellulose and 0.1% Tween 80, were administered daily by gavage at the specified concentrations. In order to optimally detect persistent infection, immune responses in the mice were suppressed by intraperitoneal injection of four doses of cyclophosphamide every 2-3 days (200 mg/kg/day), beginning one week after the end of therapeutic treatment. At the end of the immunosuppression regimen, peripheral blood was checked under light microscope for parasites and cultured in LDNT media (Bustamante, et al., The Journal of infectious diseases 209, 150-162 (2014)). […] In vivo killing time assays: C57BL/6 mice were infected with 2.5×10^5 Luciferase-expressing T. cruzi (Brazil strain) in the foot pads, and two days later one oral dose of AN14353 (25 mg/kg) was administered. The bioluminescent signal in the feet after i.p. injection of D-luciferin (PerkinElmer; 250 mg/kg) was measured in a Lumina II IVIS imager (PerkinElmer). […]

The nature of data set [3]: Pharmacokinetics in mice (intravenous and oral). The class given is in vivo. As to conditions: in words.
The test system of data set [4] is T. cruzi (CL strain). As to the kind of experiment: Rapid in vivo assay: mouse footpad infection with tdTomato-expressing T. cruzi, single oral dose. Details: species or system Trypanosoma cruzi. As to conditions: mice, reduced doses (FIG. 1B). As to the method:
Fluorescent intensity of the feet was measured at 2 dpi before compound administration and at 4 dpi in the Maestro in vivo imaging system equipped with the software Maestro 2.1.0 (CRi) as previously described (Fleau, et al., J Med Chem 62, 10362-10375 (2019)). The proliferation index was estimated as PI=[(T4d−T2d)/(mUnt4d−mUnt2d)]*100; where T4d and T2d are the fluorescence intensity of the feet of the treated animals at days 4 and 2 post-infection respectively; mUnt4d and mUnt2d are the average fluorescence intensity of the feet of the untreated animals at 4 and 2 dpi respectively.

Data set [5] has as its system T. cruzi isolates. Kind of data set: In vitro potency of AN14353 for a range of T. cruzi isolates of different genetic lineages (DTUs). The class given is cell-based, Trypanosoma cruzi. Here is the method:
as §1

Take `Cc1c(C(=O)N[C@H](C(=O)OCC2CCOCC2)C(C)C)ccc2c1B(O)OC2` [AN15368]: the “increase in resistance on overexpression of CPSF3” value in data set [1] (intracellular amastigotes) was 3-5 fold. Besides, the “effect of CPSF3 Asn232 to His mutation” value in data set [1] (intracellular amastigotes (FIG. 5D)) is given as “conferred resistance”.

`Cc1c(C(=O)N[C@H](C(=O)OCc2ccc(F)c(F)c2)C(C)C)ccc2c1B(O)OC2` [AN14353]: the “in vivo trypanocidal activity (bioluminescence of feet over 72 hrs)” value in data set [2] is reported as “rapid in vivo trypanocidal activity”. Also, in data set [3], the “absorption (dose proportionality of exposure in vivo)” value is given as “solubility-limited absorption”. For the same compound, the “reduction of established focal footpad infection by a single oral dose” value in data set [4] is listed as “activity at reduced doses”. In data set [5] (in words), the “in vitro potency for a range of T. cruzi isolates” value is listed as “high in vitro potency”. Moreover, the IC50 in data set [5] (strain 20290, DTU TcI) came to 3 nM; in data set [5] (strain 20392, DTU TcIV), 5 nM; in data set [5] (strain ARC0704, DTU TcI) it was 3 nM; in data set [5] (strain CL, DTU TcVI), 6 nM; in data set [5] (strain Colombiana, DTU TcI), 7 nM; in data set [5] (strain M5631, DTU TcIII), 1 nM. The IC50 in data set [5] (strain Montalvania, DTU TcI) came out at 1 nM; in data set [5] (strain Tul8, DTU TcII), 1 nM. In addition, the IC90 in data set [5] (strain 20290, DTU TcI) is 5 nM; in data set [5] (strain 20392, DTU TcIV) it was 10 nM; in data set [5] (strain ARC0704, DTU TcI) it was 7 nM; in data set [5] (strain CL, DTU TcVI), 18 nM; in data set [5] (strain Colombiana, DTU TcI) it was 10 nM; in data set [5] (strain M5631, DTU TcIII) it was 3 nM. Also, the IC90 came out at 2 nM in data set [5] (strain Montalvania, DTU TcI) and 2 nM in data set [5] (strain Tul8, DTU TcII).
